Experimental data taken from PMC12692968, “Design, Synthesis, Molecular Docking, and Anticancer Activity of Chalcone Derivatives as VEGFR-2 Inhibitors” (Molecules, 2025).

Key:
[1] = tested on: human cervical squamous cell carcinoma cell line SiHa; assay: CCK-8 cytotoxicity assay, SiHa cells; type: cell-based; conditions: for IC50: Homo sapiens, SiHa, CCK-8, 48 h incubation, mean ± SD, n = 3
Procedure: (§1) The SiHa, K562, B16 and HK-2 cells were obtained from Wuhan Pricella Biotechnology Co., Ltd. (Wuhan, China). […] 2–5 × 10^3 cells were added to each well of a 96-well plate and incubated for 12 h, followed by the addition of the tested compounds. After incubation for 48 h, 10 μL of the CCK-8 solution was added to each well and incubated for another 2 h. The absorbance of each well was measured at 450 nm using an enzyme-linked immunosorbent assay (ELISA) reader. The experiments were replicated three times. The inhibition rate of cancer cells was calculated using the Formula (1). The half-maximal inhibitory concentration (IC50) value was calculated using GraphPad Prism 8.0 software.

[2] = tested on: human chronic myeloid leukemia cell line K562; assay: CCK-8 cytotoxicity assay, K562 cells; type: cell-based; conditions: for IC50: CCK-8, 48 h incubation, mean ± SD, n = 3
Procedure: as §1

[3] = tested on: mouse melanoma cell line B16; assay: CCK-8 cytotoxicity assay, B16 cells; type: cell-based; conditions: for IC50: CCK-8, 48 h incubation, mean ± SD, n = 3
Procedure: as §1

[4] = biological target: T1, VEGFR-2 (KDR) protein kinase (Homo sapiens, UniProt P35968); assay: VEGFR-2 (KDR) Kinase Assay Kit enzyme inhibition assay; type: biochemical; conditions: Kinase-Glo MAX, 30 °C 45 min, mean ± SD, n = 3
T1 construct: purchased BPS Biosciences, San Diego, CA, USA
T1 sequence (P35968 20-1356): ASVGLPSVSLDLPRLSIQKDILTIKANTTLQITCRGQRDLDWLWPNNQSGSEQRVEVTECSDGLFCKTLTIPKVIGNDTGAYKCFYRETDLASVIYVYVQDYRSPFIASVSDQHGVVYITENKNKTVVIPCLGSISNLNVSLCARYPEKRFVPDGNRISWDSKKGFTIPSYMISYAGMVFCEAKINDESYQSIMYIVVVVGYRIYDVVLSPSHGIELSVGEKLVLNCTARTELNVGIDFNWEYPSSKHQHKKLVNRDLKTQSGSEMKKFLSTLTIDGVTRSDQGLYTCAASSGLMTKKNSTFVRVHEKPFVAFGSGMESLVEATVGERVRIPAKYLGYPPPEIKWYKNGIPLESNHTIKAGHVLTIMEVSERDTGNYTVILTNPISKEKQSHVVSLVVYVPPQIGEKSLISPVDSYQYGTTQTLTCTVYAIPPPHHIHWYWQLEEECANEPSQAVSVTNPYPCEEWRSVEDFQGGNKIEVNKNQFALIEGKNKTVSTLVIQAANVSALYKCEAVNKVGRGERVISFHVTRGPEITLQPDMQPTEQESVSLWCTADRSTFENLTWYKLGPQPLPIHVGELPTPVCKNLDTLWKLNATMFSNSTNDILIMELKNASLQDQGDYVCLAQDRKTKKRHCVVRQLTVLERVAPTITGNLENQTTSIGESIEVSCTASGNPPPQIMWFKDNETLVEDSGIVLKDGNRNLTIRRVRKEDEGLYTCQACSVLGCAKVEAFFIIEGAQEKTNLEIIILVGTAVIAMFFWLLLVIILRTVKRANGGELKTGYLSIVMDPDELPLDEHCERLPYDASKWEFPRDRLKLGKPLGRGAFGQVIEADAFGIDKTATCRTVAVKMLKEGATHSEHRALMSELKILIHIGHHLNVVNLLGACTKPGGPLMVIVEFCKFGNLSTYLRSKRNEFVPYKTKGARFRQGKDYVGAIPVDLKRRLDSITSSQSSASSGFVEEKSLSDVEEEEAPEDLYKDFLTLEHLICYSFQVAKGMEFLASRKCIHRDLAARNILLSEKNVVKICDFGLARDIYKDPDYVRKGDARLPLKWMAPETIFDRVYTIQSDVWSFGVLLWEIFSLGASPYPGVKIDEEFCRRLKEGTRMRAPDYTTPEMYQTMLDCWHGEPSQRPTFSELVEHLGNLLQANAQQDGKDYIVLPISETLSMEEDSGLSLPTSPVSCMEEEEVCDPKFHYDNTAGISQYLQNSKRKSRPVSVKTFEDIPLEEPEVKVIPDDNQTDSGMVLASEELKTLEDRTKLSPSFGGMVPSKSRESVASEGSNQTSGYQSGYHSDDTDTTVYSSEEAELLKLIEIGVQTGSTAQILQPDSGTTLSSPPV
Procedure: Many studies have shown that abnormal VEGFR-2 signaling could induce proliferation of cervical squamous cell carcinoma cells, myeloid leukemia cancer cells, and melanoma cells. […] A VEGFR-2 (KDR) Kinase Assay Kit (BPS Biosciences, San Diego, CA, USA) was used to conduct a VEGFR-2 inhibition assay following the manufacturer’s protocol. Briefly, kinase buffer and ATP and PTK substrate (Poly-Glu,Tyr 4:1) were diluted with distilled water to prepare a master mix solution. The master mix solution, test sample, and VEGFR-2 (KDR) protein kinase (2 ng/μL) were added to a 96-well plate and incubated at 30 °C for 45 min. After incubation, Kinase-Glo™ MAX (BPS Biosciences) reagent was added to each well, and incubated for 15 min at room temperature. Then it was immediately detected with an ELISA reader. The experiments were replicated three times.

[5] = tested on: human renal epithelial cell line HK-2; assay: CCK-8 cytotoxicity assay, HK-2 cells; type: cell-based; conditions: Homo sapiens, Epithelial cell; CCK-8, 48 h incubation, mean ± SD, n = 3
Procedure: as §1, with “The cytotoxicity of synthesized compounds against HK-2 cells was also detected. […] The SiHa,” for “The SiHa,”

Compound	IC50 [1] [µM]	IC50 ([2]; Homo sapiens, K562, 48 h) [nM]	IC50 ([3]; Mus musculus, B16, 48 h) [µM]	IC50 ([1]; 48 h) [µM]	IC50 [4] [nM]	fold increase in cytotoxicity compared to unsubstituted compound 2a, SiHa ([1]; ratio of IC50 values vs 2a) [fold]	fold increase in cytotoxicity compared to unsubstituted compound 2a, K562 ([2]; ratio of IC50 values vs 2a) [fold]	fold increase in cytotoxicity compared to unsubstituted compound 2a, B16 ([3]; ratio of IC50 values vs 2a) [fold]	IC50 [5] [µM]	IC50 [2] [nM]	IC50 [3] [µM]
Cc1ccc(/C=C/C(=O)c2ccc(NC(=O)Nc3ccc(Cl)c(C(F)(F)F)c3)cc2)cc1C [Compound 2k, (E)-1-(4-chloro-3-(trifluoromethyl)phenyl)-3-(4-(3-(3,4-dimethylphenyl)acryloyl)phenyl)urea]	8.35 ± 0.09	1730 ± 230	6.42 ± 0.54								
O=C(Nc1ccc(C(=O)/C=C/c2cccs2)cc1)Nc1ccc(Cl)c(C(F)(F)F)c1 [Compound 2n, (E)-1-(4-chloro-3-(trifluoromethyl)phenyl)-3-(4-(3-(thiophen-2-yl)acryloyl)phenyl)urea]		15200 ± 1200		> 20	2200 ± 100						
O=C(Nc1ccc(C(=O)C=Cc2ccccc2)cc1)Nc1ccc(Cl)c(C(F)(F)F)c1 [Compound 2a, 1-(4-chloro-3-(trifluoromethyl)phenyl)-3-(4-cinnamoylphenyl)urea]	4.43 ± 0.16	12600 ± 450	10.7 ± 0.78								
O=C(Nc1ccc(C(=O)/C=C/c2ccc(F)cc2)cc1)Nc1ccc(Cl)c(C(F)(F)F)c1 [Compound 2c, (E)-1-(4-chloro-3-(trifluoromethyl)phenyl)-3-(4-(3-(4-fluorophenyl)acryloyl)phenyl)urea]	1.03 ± 0.02	2050 ± 130	5.02 ± 0.18		680 ± 30	4.3	6.2	2.1	15.7 ± 1.22		
COc1cc(/C=C/C(=O)c2ccc(NC(=O)Nc3ccc(Cl)c(C(F)(F)F)c3)cc2)cc(OC)c1O [Compound 2r, (E)-1-(4-chloro-3-(trifluoromethyl)phenyl)-3-(4-(3-(4-hydroxy-3,5-dimethoxyphenyl)acryloyl)phenyl)urea]	2.22 ± 0.1	970 ± 60	2.93 ± 0.29						11.3 ± 0.66		
COc1ccc(/C=C/C(=O)c2ccc(NC(=O)Nc3ccc(Cl)c(C(F)(F)F)c3)cc2)cc1 [Compound 2b, (E)-1-(4-chloro-3-(trifluoromethyl)phenyl)-3-(4-(3-(4-methoxyphenyl)acryloyl)phenyl)urea]	5.55 ± 0.26	5080 ± 310	8.32 ± 0.61								
COc1cc(/C=C/C(=O)c2ccc(NC(=O)Nc3ccc(Cl)c(C(F)(F)F)c3)cc2)cc(OC)c1 [Compound 2h, (E)-1-(4-chloro-3-(trifluoromethyl)phenyl)-3-(4-(3-(3,5-dimethoxyphenyl)acryloyl)phenyl)urea]	2.99 ± 0.27	1620 to 2020	1.62 to 2.02						9.87 ± 0.89	2020 ± 120	1.62 ± 0.14
CCc1ccc(/C=C/C(=O)c2ccc(NC(=O)Nc3ccc(Cl)c(C(F)(F)F)c3)cc2)cc1 [Compound 2i, (E)-1-(4-chloro-3-(trifluoromethyl)phenyl)-3-(4-(3-(4-ethylphenyl)acryloyl)phenyl)urea]	7.96 ± 0.26	4450 ± 530	8.66 ± 0.58								
O=C(Nc1ccc(C(=O)/C=C/c2ccco2)cc1)Nc1ccc(Cl)c(C(F)(F)F)c1 [Compound 2m, (E)-1-(4-chloro-3-(trifluoromethyl)phenyl)-3-(4-(3-(furan-2-yl)acryloyl)phenyl)urea]	6.53 ± 0.24	8950 ± 760									
O=C(Nc1ccc(C(=O)/C=C/c2cccc(Cl)c2)cc1)Nc1ccc(Cl)c(C(F)(F)F)c1 [Compound 2e, (E)-1-(4-chloro-3-(trifluoromethyl)phenyl)-3-(4-(3-(3-chlorophenyl)acryloyl)phenyl)urea]	4.71 ± 0.29	2910 ± 170	11.3 ± 0.64								
COc1ccc(/C=C/C(=O)c2ccc(NC(=O)Nc3ccc(Cl)c(C(F)(F)F)c3)cc2)c(OC)c1OC [Compound 2j, (E)-1-(4-chloro-3-(trifluoromethyl)phenyl)-3-(4-(3-(2,3,4-trimethoxyphenyl)acryloyl)phenyl)urea]	6.62 ± 0.28	2400 ± 220	9.73 ± 0.98								
COc1ccc(/C=C/C(=O)c2ccc(NC(=O)Nc3ccc(Cl)c(C(F)(F)F)c3)cc2)cc1O [Compound 2o, (E)-1-(4-chloro-3-(trifluoromethyl)phenyl)-3-(4-(3-(3-hydroxy-4-methoxyphenyl)acryloyl)phenyl)urea]	1.22 ± 0.07	1510 ± 160	3.06 ± 0.22		310 ± 20				19.1 ± 1.05		
O=C(Nc1ccc(C(=O)/C=C/c2ccc(O)cc2)cc1)Nc1ccc(Cl)c(C(F)(F)F)c1 [Compound 2s, (E)-1-(4-chloro-3-(trifluoromethyl)phenyl)-3-(4-(3-(4-hydroxyphenyl)acryloyl)phenyl)urea]	8.96 ± 0.03	6470 ± 360	4.29 ± 0.52								
O=C(Nc1ccc(C(=O)/C=C/c2ccc(O)c(O)c2)cc1)Nc1ccc(Cl)c(C(F)(F)F)c1 [Compound 2q, (E)-1-(4-chloro-3-(trifluoromethyl)phenyl)-3-(4-(3-(3,4-dihydroxyphenyl)acryloyl)phenyl)urea]	2.53 ± 0.09	1120 ± 100	4.49 ± 0.24		550 ± 40				24.3 ± 1.71		
COc1cc(/C=C/C(=O)c2ccc(NC(=O)Nc3ccc(Cl)c(C(F)(F)F)c3)cc2)ccc1O [Compound 2p, (E)-1-(4-chloro-3-(trifluoromethyl)phenyl)-3-(4-(3-(4-hydroxy-3-methoxyphenyl)acryloyl)phenyl)urea]	4.25 ± 0.14	3420 ± 180	4.37 ± 0.28						13.9 ± 0.58		
O=C(Nc1ccc(C(=O)/C=C/c2ccc(Cl)cc2)cc1)Nc1ccc(Cl)c(C(F)(F)F)c1 [Compound 2d, (E)-1-(4-chloro-3-(trifluoromethyl)phenyl)-3-(4-(3-(4-chlorophenyl)acryloyl)phenyl)urea]	4.78 ± 0.14	8410 ± 570	12.8 ± 0.84								
COc1cc(/C=C/C(=O)c2ccc(NC(=O)Nc3ccc(Cl)c(C(F)(F)F)c3)cc2)cc(OC)c1OC [Compound 2f, (E)-1-(4-chloro-3-(trifluoromethyl)phenyl)-3-(4-(3-(3,4,5-trimethoxyphenyl)acryloyl)phenyl)urea]	4.89 ± 0.21	1620 to 2020	1.62 to 2.02		390 ± 20				5.85 ± 0.36	1680 ± 90	1.65 ± 0.29
Cc1ccc(/C=C/C(=O)c2ccc(NC(=O)Nc3ccc(Cl)c(C(F)(F)F)c3)cc2)cc1 [Compound 2g, (E)-1-(4-chloro-3-(trifluoromethyl)phenyl)-3-(4-(3-(p-tolyl)acryloyl)phenyl)urea]	6.03 ± 0.38	4190 ± 260	7.15 ± 0.49								
